Data on 22 compounds can be found in publication PMC6479814, “Structure-Based Design of Novel Benzimidazole Derivatives as Pin1 Inhibitors” (Molecules, 2019).

In data set [1] the test system is PC-3 cells. As to the kind of experiment: In vitro anti-proliferative MTT assay. It counts as cell-based, human. To be noted: for GI50: Homo sapiens, PC-3 cells, MTT, 96 h; for antiproliferative activity against human prostate cancer PC-3 cells: result in words. As to the method: As for Pin1 was overexpressed in human prostate cancer cells, the antiproliferative activity of these benzimidazole derivatives against PC-3 cells were further evaluated by MTT assay. Meanwhile, the polar surface area (PSA) of these compounds was calculated under the optimal conformation since PSA is the key indicator of membrane permeability.
The tested cells were plated in 96-well microtiter plates with a density of 2,000 cells/well and incubated in a humidified atmosphere with 5% CO2 at 37 °C for 24 h. The cells were then exposed to tested compounds of different concentrations in triplicate. After incubated for 96 h, 50 μL of 3-(4,5-dimethylthiazol-2-yl)-2,5-diphenyltetrazolium bromide (MTT) solution (2 mg/mL) was added to each well and incubated for an additional 4 h. Then the suspernatant was discarded and the fromazan was dissolved in 200 μL of dimethyl sulfoxide (DMSO). The plate was oscillated subtly at room temperature for 10 min before the absorbance was measured at 570 nm by a microplate reader. Cell inhibitory ratio was calculated with the following formula:Inhibitory Rate (%) = [(Acontrol − Atreated)/Acontrol] × 100%(1)
The GI50 was determined as the concentration that caused half inhibition of cell proliferation. All experiments were performed three times independently, and the results were reported presented as the mean.

For data set [2], the target named is T1, Pin1 (Homo sapiens, UniProt Q13526).
T1 construct: purchased Sino Biological Inc., Beijing, China
T1 sequence (Q13526 whole entry): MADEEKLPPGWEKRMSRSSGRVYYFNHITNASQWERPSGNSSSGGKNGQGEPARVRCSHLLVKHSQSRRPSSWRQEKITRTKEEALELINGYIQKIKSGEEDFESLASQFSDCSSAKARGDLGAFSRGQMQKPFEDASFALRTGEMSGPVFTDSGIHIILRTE
As to the kind of experiment: Pin1 inhibition, protease-coupled assay. Type of data set: biochemical. To be noted: 10 °C; for inhibition at 10 µM: Pin1, compound at 10 μM; for IC50: Pin1, protease-coupled assay. As to the method: To investigate the Pin1 inhibitory potency of all synthesized compounds, the inhibition ratio at 10 μM or IC50 of all synthesized compounds was determined using protease-coupled assay.
Pin1 inhibitory activities were measured at 10 °C by protease-coupled assay as reported previous. Suc-Ala-Glu-cis-Pro-Phe-4-nitroaniline (Bachem, Bubendorf, Switzerland) in 0.47 mol/L, LiCl/trifluoroethanol was used as the substrate. The assay buffer (860 μL of 35 mM HERES at pH 7.8), Pin1 (20 μL, Bought from Sino Biological Inc., Beijing, China) and target compounds (10 μL of varying comcentrations in DMSO) were pre-equilibtated in the cuvette at 10 °C for 30 min. Then, 150 uL of ice-cooled chymotrypsin (60 mg/mL in 0.001 M/HCl) was added and mixed immediately. Additional substrate (40 μL) was added to start the assay and the reaction was monitored by absorbance at 390 nm for 90 s. For each compound, four concentrations (10 μM, 3.3 μM, 1.1 μM, 0.37 μM) were chosen, and the assay was performed in duplicate. The data was analyzed by Graphpad Prism 6.0.

Details of data set [3]: method as in PMID 29170140. To be noted: in humans; cited from earlier work.
In data set [4] the target is T1, Pin1. The following applies: known Pin1 inhibitors, Figure 1; cited from earlier work.
The subject of data set [5] is tumor cells. Set-up: method as in PMID 19729306, PMID 20207139, PMID 25091930. The following applies: result in words; cited from earlier work.

Structures are written as SMILES. Where two headings read alike, the source gives them in different places.

One may read the melting point as the temperature of the solid-liquid transition. What is called GI50 is the concentration that inhibits growth by half. The low end stands for more potent growth inhibition, the high end for less potent growth inhibition. As a reminder, the inhibition is the share of the control response that was lost under treatment. On to `Cc1cc(C)c(NC(=O)CCn2c(CCC(=O)O)nc3ccccc32)c(C)c1` [Compound 7c, 3-(1-(3-(Mesitylamino)-3-oxopropyl)-1H-benzo[d]imidazol-2-yl)propanoic acid], for which the melting point lay in the range of 222 to 224 °C. Also, in data set [1], growth was halved (GI50) at 28.6 µM and the “antiproliferative activity against human prostate cancer PC-3 cells” value (“antiproliferative activity” below) was “moderate antiproliferative activity”. Also, in data set [2], 10 µM produced 60% inhibition.
As a reminder, the IC50 is the concentration that inhibits the measured activity by half. `O=C(CCn1c(-c2nc(C(=O)O)cs2)nc2ccccc21)Nc1ccc(C(F)(F)F)cc1` [Compound 13h, 2-(1-(3-Oxo-3-((4-(trifluoromethyl)phenyl)amino)propyl)-1H-benzo[d]imidazol-2-yl)thiazole-4-carboxylic acid] gave a melting point of 176 to 178 °C. Besides, in data set [1], the GI50 is greater than 50 µM. In data set [2], this compound returned an inhibition at 10 µM of 81% and an IC50 of 1.15 µM.
For orientation: half-life means how long it takes for the measured level to halve. `CC1=C(/C=C/C(C)=C/C=C/C(C)=C/C(=O)O)C(C)(C)CCC1` [ATRA, all-trans retinoic acid]: the half-life in data set [3] was 45 min.
`O=C(O)/C=C/c1nc2ccccc2n1CCC(=O)N1CCCCC1` [Compound 6a, (E)-3-(1-(3-oxo-3-(piperidin-1-yl)propyl)-1H-benzo[d]imidazol-2-yl)acrylic acid] came in with a melting point of 128 to 130 °C. The compound also yielded a GI50 in data set [1] greater than 50 µM. The inhibition at 10 µM in data set [2] turned out to be 28%.
For `O=C(O)CCc1nc2ccccc2n1CCC(=O)Nc1ccc(Cl)cc1` [Compound 7b, 3-(1-(3-((4-Chlorophenyl)amino)-3-oxopropyl)-1H-benzo[d]imidazol-2-yl)propanoic acid], in that order: 66 to 68 °C, greater than 50 µM and 31%.
For `O=C(O)/C=C/c1nc2ccccc2n1CCC(=O)NCCc1ccc(Br)cc1` [Compound 6k, (E)-3-(1-(3-((4-Bromophenethyl)amino)-3-oxopropyl)-1H-benzo[d]imidazol-2-yl)acrylic acid], the melting point was in the range of 203 to 205 °C. The compound further returned a GI50 in data set [1] greater than 50 µM. In data set [2], this compound had an inhibition at 10 µM of 62%.
For `O=C(CCn1c(-c2nc(C(=O)O)cs2)nc2ccccc21)Nc1ccccc1Br` [Compound 13c, 2-(1-(3-((2-Bbromophenyl)amino)-3-oxopropyl)-1H-benzo[d]imidazol-2-yl)thiazole-4-carboxylic acid], the melting point lay in the range of 186 to 188 °C. The same compound had a concentration for 50% growth inhibition (GI50) in data set [1] greater than 50 µM. Testing at 10 µM in data set [2] gave an inhibition of 79%.
Compound `O=C(CCn1c(-c2nc(C(=O)O)cs2)nc2ccccc21)Nc1cccc([N+](=O)[O-])c1` [Compound 13f, 2-(1-(3-((3-Nitrophenyl)amino)-3-oxopropyl)-1H-benzo[d]imidazol-2-yl)thiazole-4-carboxylic acid] yielded a melting point of 234 to 236 °C. In data set [1], this compound registered a GI50 greater than 50 µM. In addition, at 10 µM the inhibition in data set [2] was 40%.
The compound `O=C(O)/C=C/c1nc2ccccc2n1CCC(=O)Nc1ccc(Br)cc1` [Compound 6g, (E)-3-(1-(3-((4-Bromophenyl)amino)-3-oxopropyl)-1H-benzo[d]imidazol-2-yl)acrylic acid] returned a melting point of 192 to 194 °C. Moreover, in data set [1], halving of growth (GI50) required 14.1 µM and the “antiproliferative activity” value is on record as “moderate antiproliferative activity”. In data set [2], this compound gave an inhibition at 10 µM of 66% and an IC50 of 1.73 µM.
As to `Cc1cc(C)c(NC(=O)CCn2c(/C=C/C(=O)O)nc3ccccc32)c(C)c1` [Compound 6o, (E)-3-(1-(3-((2,4,6-Trimethylphenyl)amino)-3-oxopropyl)-1H-benzo[d]imidazol-2-yl)acrylic acid], the melting point fell in the range of 275 to 278 °C. Besides, in data set [1], the GI50 turned out to be 11.1 µM and the “antiproliferative activity” value is “moderate antiproliferative activity”. In data set [2], this compound displayed an inhibition at 10 µM of 84% and an IC50 of 0.97 µM.
Consider `O=C(O)/C=C/c1nc2ccccc2n1CCC(=O)Nc1cccc(Br)c1` [Compound 6h, (E)-3-(1-(3-((3-Bromophenyl)amino)-3-oxopropyl)-1H-benzo[d]imidazol-2-yl)acrylic acid], for which the melting point lay within 209 to 210 °C. In data set [1], halving of growth (GI50) required 9.89 µM and the “antiproliferative activity” value is “moderate antiproliferative activity”. Also, in data set [2], the inhibition at 10 µM was found to be 90% and the 50% inhibitory concentration (IC50) was 0.64 µM.
`O=C(O)/C=C/c1nc2ccccc2n1CCC(=O)Nc1ccc(Cl)cc1` [Compound 6f, (E)-3-(1-(3-((4-Chlorophenyl)amino)-3-oxopropyl)-1H-benzo[d]imidazol-2-yl)acrylic acid] displayed a melting point of 158 to 160 °C. This compound also registered a GI50 in data set [1] greater than 50 µM. Testing at 10 µM in data set [2] gave an inhibition of 54%.
As to `Nc1nc(OCc2ccc(CNC(=O)C(F)(F)F)cc2)c2nc[nH]c2n1` [API-1], the IC50 in data set [4] was 0.07 µM.
With `O=C(O)/C=C/c1nc2ccccc2n1CCC(=O)Nc1cc(Cl)cc(Cl)c1` [Compound 6n, (E)-3-(1-(3-((3,5-Dichlorophenyl)amino)-3-oxopropyl)-1H-benzo[d]imidazol-2-yl)acrylic acid], the melting point lay within 152 to 154 °C. Further, in data set [1], it took 20.3 µM to inhibit growth by half (GI50) and the “antiproliferative activity” value is given as “moderate antiproliferative activity”. Further, in data set [2], the inhibition at 10 µM was determined as 71% and half-maximal inhibition (IC50) was put at 1.87 µM.
In the case of `COc1ccc(CCNC(=O)CCn2c(/C=C/C(=O)O)nc3ccccc32)cc1` [Compound 6m, (E)-3-(1-(3-((4-Methoxyphenethyl)amino)-3-oxopropyl)-1H-benzo[d]imidazol-2-yl)acrylic acid], the melting point is 219 to 220 °C. Besides, the 50% growth inhibitory concentration (GI50) in data set [1] is greater than 50 µM. In addition, in data set [2], the inhibition at 10 µM is 49%.
For `COc1ccc(NC(=O)CCn2c(/C=C/C(=O)O)nc3ccccc32)cc1` [Compound 6e, (E)-3-(1-(3-((4-Methoxyphenyl)amino)-3-oxopropyl)-1H-benzo[d]imidazol-2-yl)acrylic acid], the melting point was in the range of 215 to 217 °C. The GI50 in data set [1] is greater than 50 µM. This compound also came in with an inhibition at 10 µM in data set [2] of 48%.
Consider `Cc1ccc(NC(=O)CCn2c(CCC(=O)O)nc3ccccc32)cc1` [Compound 7a, 3-(1-(3-Oxo-3-(p-tolylamino)propyl)-1H-benzo[d]imidazol-2-yl)propanoic acid], for which the melting point fell in the range of 66 to 68 °C. Moreover, in data set [1], the GI50 was greater than 50 µM. In data set [2], this compound registered an inhibition at 10 µM of 60%.
On to `COc1cccc(NC(=O)CCn2c(-c3nc(C(=O)O)cs3)nc3ccccc32)c1` [Compound 13d, 2-(1-(3-((3-Methoxyphenyl)amino)-3-oxopropyl)-1H-benzo[d]imidazol-2-yl)thiazole-4-carboxylic acid], for which the melting point was in the range of 223 to 225 °C. Besides, in data set [1], the GI50 is greater than 50 µM. This compound also gave an inhibition at 10 µM in data set [2] of 75%.
For `O=C(CCn1c(-c2nc(C(=O)O)cs2)nc2ccccc21)Nc1ccccc1` [Compound 13a, 2-(1-(3-Oxo-3-(phenylamino)propyl)-1H-benzo[d]imidazol-2-yl)thiazole-4-carboxylic acid], in that order: 226 to 228 °C, greater than 50 µM and 73%.
In turn, `COc1cc(NC(=O)CCn2c(/C=C/C(=O)O)nc3ccccc32)cc(OC)c1` [Compound 6i, (E)-3-(1-(3-((3,5-dimethoxyphenyl)amino)-3-oxopropyl)-1H-benzo[d]imidazol-2-yl)acrylic acid] returned a melting point of 203 to 204 °C. Further, the GI50 in data set [1] was greater than 50 µM. Also, the inhibition at 10 µM in data set [2] was determined as 60%.
As for `O=C(O)/C=C/c1nc2ccccc2n1CCC(=O)Nc1ccccc1` [Compound 6c, (E)-3-(1-(3-Oxo-3-(phenylamino)propyl)-1H-benzo[d]imidazol-2-yl)acrylic acid], the melting point fell in the range of 228 to 230 °C. In addition, the GI50 in data set [1] was greater than 50 µM. This compound registered an inhibition at 10 µM in data set [2] of 46%.
In the case of `O=Cc1nc2ccccc2[nH]1` [Compound 2], in data set [5], the “antiproliferative activities against tumor cells” value is “did not exhibit antiproliferative activities”.
